Laboratory results taken from the supplement of paper PMC10307832.

Columns and labels:
Assay in all cases: relative viability (nuclei count vs DMSO), 5 days (fraction); higher = more cells survive
Tivantinib + Pemetrexed = compound: O=C1NC(=O)[C@@H](c2cn3c4c(cccc24)CCC3)[C@@H]1c1c[nH]c2ccccc12 [Tivantinib] + Nc1nc2[nH]cc(CCc3ccc(C(=O)N[C@@H](CCC(=O)O)C(=O)O)cc3)c2c(=O)[nH]1 [Pemetrexed] (partner 0.2 µM)
In short: (§1)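 Each reported value is a median over duplicate plates. It expresses relative viability: treated-well nuclei count divided by vehicle-well nuclei count. Lung cancer cell lines in 1536-well plates were dosed by pin tool a day after seeding, alone with one drug or with a fixed anchor-drug dose plus five library-drug doses (not always all listed) in √10 steps, and nuclei were counted after 5 days.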

Crenolanib + OSI-027 = compound: CC1(COc2ccc3c(c2)ncn3-c2ccc3cccc(N4CCC(N)CC4)c3n2)COC1 [Crenolanib] + COc1cccc2cc(-c3nc([C@H]4CC[C@H](C(=O)O)CC4)n4ncnc(N)c34)[nH]c12 [OSI-027] (partner 0.5 µM)
In short: as §1

Tivantinib = compound: O=C1NC(=O)[C@@H](c2cn3c4c(cccc24)CCC3)[C@@H]1c1c[nH]c2ccccc12 [Tivantinib]
In short: (§2)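 Lung cancer cell lines in 1536-well plates were exposed by pinning to five library-drug doses (not always all listed) √10 apart, following an overnight hold at 37 °C. MetaXpress counted Hoechst-stained nuclei from 4× images taken after 5 days without medium change. Viability is the median ratio of treated-well to vehicle-well nuclei across plates. Plates required control CV below 25% and at least one doubling.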

Crenolanib = compound: CC1(COc2ccc3c(c2)ncn3-c2ccc3cccc(N4CCC(N)CC4)c3n2)COC1 [Crenolanib]
In short: as §2

| Cell Line | relative viability (Tivantinib + Pemetrexed; first compound 0.01 µM) | relative viability (Tivantinib + Pemetrexed; first compound 0.03162 µM) | relative viability (Tivantinib + Pemetrexed; first compound 0.1 µM) | relative viability (Tivantinib + Pemetrexed; first compound 0.3162 µM) | relative viability (Crenolanib + OSI-027; first compound 0.01 µM) | relative viability (Crenolanib + OSI-027; first compound 0.03162 µM) | relative viability (Crenolanib + OSI-027; first compound 0.1 µM) | relative viability (Crenolanib + OSI-027; first compound 0.3162 µM) | relative viability (Crenolanib + OSI-027; first compound 1 µM) | relative viability (Tivantinib; 0.01 µM) | relative viability (Tivantinib; 0.03162 µM) | relative viability (Tivantinib; 0.1 µM) | relative viability (Tivantinib; 0.3162 µM) | relative viability (Crenolanib; 0.01 µM) | relative viability (Crenolanib; 0.03162 µM) | relative viability (Crenolanib; 0.1 µM) | relative viability (Crenolanib; 0.3162 µM) | relative viability (Crenolanib; 1 µM) |
| --- | --- | --- | --- | --- | --- | --- | --- | --- | --- | --- | --- | --- | --- | --- | --- | --- | --- | --- |
| SK-MES-1 | 0.95 | 0.913 | 0.816 | 0.783 | 0.598 | 0.657 | 0.508 | 0.581 | 0.599 | 1.06 | 0.912 | 0.91 | 0.915 | 1.05 | 1.01 | 0.973 | 1.06 | 0.936 |
| SW 900 | 0.551 | 0.497 | 0.475 | 0.515 | 0.677 | 0.575 | 0.46 | 0.657 | 0.342 | 1.05 | 0.709 | 0.928 | 0.878 | 0.813 | 0.851 | 1.06 | 0.86 | 0.645 |
| SW 1573 | 0.918 | 0.797 | 0.818 | 0.76 | 0.667 | 0.664 | 0.51 | 0.493 | 0.578 | 1.02 | 0.866 | 0.981 | 0.958 | 1.01 | 1.01 | 0.955 | 1.01 | 0.986 |
